Laboratory results from patent US9254266B2, “Inhibiting surface enhanced crystallization of amorphous pharmaceuticals with ultrathin coatings” (Wisconsin Alumni Research Foundation, priority 2007, dated 2016).
≈ marks a conversion by molar mass, not a printed value.

Key:
Type in all cases: physicochemical
[1] = Zeta potential of IMC particles; details: particles suspended in 0.01 M NaCl
Procedure: Zeta potentials were measured with a ZetaSizer 3000HSA (Malvern Instruments, USA). Sample particles (ca. 5 mg) were dispersed in 0.01 M NaCl. […] Each reported result was the average of three measurements.
Before coating amorphous IMC by this method, the sign of its surface charge in a coating solution was determined. […] (The pH of the coating solutions was 6.1 (PDDA) and 6.4 (PSS)). […] Coating with one layer of PDDA reversed the surface charge to positive (ζ-potential=+37 mV); adding the next layer (PSS) reversed the surface charge to negative again (ζ-potential=−32 mV); and so on.

[2] = Solubility of γ IMC in buffer; details: aqueous buffer, thermodynamic from solid; 0.1 M PBS buffer pH 7.2, 37° C.
[3] = Intrinsic dissolution rate (IDR), USP Dissolution Apparatus II; details: 0.1 M phosphate buffer pH 7.2, 37° C.; for IDR: 50 RPM, first 15 minutes, no storage
Procedure: Measurement of intrinsic dissolution rate (IDR). The IDR was measured using a USP Dissolution Apparatus II (rotating paddle, model RC-8D, Vanguard, Spring, Tex.) following standard procedures. […] Tablets without visible chipping or surface imperfection were used for dissolution measurement. Each tablet used for IDR measurement was coated on one side and around the rim with water-impervious shellac (clear nail polish) that contained as the primary ingredient tosylamide epoxy resin. Conditions of the IDR measurement were as follows: 500 ml of 0.1 M phosphate buffer (pH 7.2), 50 RPM of paddle speed, 1 inch between the tablet and the paddle, and 37° C. Samples were taken every 2.5 minutes up to 15 minutes, every 5 minutes up to 30 minutes, and every 10 minutes up to 60 minutes. Each sample (2 ml) of the solution was drawn with a syringe and filtered through a 0.22-μm filter needle. The sample's concentration was determined by UV-visible spectrometry at 318 nm. The analyzed solution was returned to the dissolution vessel to maintain the constant volume. For each amorphous IMC material studied (with and without coating, with and without aging), the IDR measurement was performed six times with three independently prepared materials as described above.
As shown above in FIG. 4, because one layer of PDDA was nearly as effective as several layers of PDDA and PSS in inhibiting surface crystallization, this example used materials coated with a single layer of PDDA. Moreover, thinner coatings are expected to maximize the rate of dissolution. […] For comparison, the IDR of γ IMC was also measured. Each data point in FIG. 8 is the average of six measurements. For each sample of amorphous IMC (uncoated or coated), the six measurements were performed with three independently prepared materials (including melting, grinding, coating, and tableting). […] Similarly, it is assumed that the IDR of amorphous IMC was measured under a sink condition.

[4] = Crystallization of amorphous IMC powder on storage (XRPD, DSC)
Procedure: The particles were sieved through to a 75 μm screen, transferred to a 200 ml beaker containing 100 ml of the PDDA solution, and kept in contact with the solution for 15 minutes. The suspension was filtered through #2 Whatman filter paper to remove the supernatant and washed with Milli-Q water. Vacuum was then applied to dry the particles for at least 3 hrs.
X-ray powder diffraction (XRPD). XRPD was performed with a Bruker D8 Advance X-ray diffractometer, which was equipped with a CuKα source (λ=1.54056 Å) operating at a tube load of 40 kV and 40 mA. The divergence slit size was 1 mm, the receiving slit, 1 mm, and the detector slit, 0.1 mm. Data was collected by a high-resolution Sol-X detector. Each sample was scanned between 2 and 40° (2θ) with a step size of 0.02° and a maximum scan rate of 3 s/step. The NIST standard SRM 1976 was used to check the instrument's calibration and performance. Samples of small quantities were analyzed on a Si(510) zero-background holder. Polarized light microscopy (PLM) was performed with a Nikon Optiphot Pol 2 microscope equipped with an Olympus video camera. The video image was calibrated against a 1-mm stage micrometer (100 divisions). Differential scanning calorimetry (DSC) was conducted in crimped Al pans using a TA Instruments Q1000 unit under 50 mL/min N2 purge.
The larger the exotherm, the greater the amorphous fraction before DSC analysis. […]

[5] = Surface crystallization and crystal growth of amorphous IMC films (light microscopy)
Procedure: Deposition of gold coatings. A Denton Vacuum Desk II (Denton Vacuum, Moorestown, N.J.) was used to deposit a gold coating on amorphous IMC. […] Under these conditions, the deposition rate was ca. 10 nm/30 s, providing a gold coating of about 10 nm in thickness. […] The coated film was golden and reflective. Deposition of LbL polyelectrolyte coatings on amorphous films. […] (Tg−20° C.), and gently removing one cover glass. To coat several films at once, they were loaded into a Teflon rack and immersed into the PDDA solution for 15 minutes. The samples were washed twice in Milli-Q water to remove the excess PDDA and immersed in the PSS solution. This procedure was repeated until the desired number of polymer layers was reached. The coated samples were left on a Whatman filter paper to remove the excess liquid on the slide and dried in a vacuum (0.4 mTorr) at 22° C. for 3 hrs. X-ray powder diffraction (XRPD). XRPD was performed with a Bruker D8 Advance X-ray diffractometer, which was equipped with a CuKα source (λ=1.54056 Å) operating at a tube load of 40 kV and 40 mA. The divergence slit size was 1 mm, the receiving slit, 1 mm, and the detector slit, 0.1 mm. Data was collected by a high-resolution Sol-X detector. Each sample was scanned between 2 and 40° (2θ) with a step size of 0.02° and a maximum scan rate of 3 s/step. The NIST standard SRM 1976 was used to check the instrument's calibration and performance. Samples of small quantities were analyzed on a Si(510) zero-background holder. Polarized light microscopy (PLM) was performed with a Nikon Optiphot Pol 2 microscope equipped with an Olympus video camera. The video image was calibrated against a 1-mm stage micrometer (100 divisions). Differential scanning calorimetry (DSC) was conducted in crimped Al pans using a TA Instruments Q1000 unit under 50 mL/min N2 purge. […] (Tg−2° C.). […] The crystals were birefringent. […] All samples were tested at 40° C. in a desiccator. […] Moreover, coating a partially crystallized sample with gold inhibited further crystallization. […] The set of experiments was again performed with amorphous IMC films prepared on microscope cover glasses. […] By contrast, only a small percentage of a coated surface was covered by crystals (white spots in the pictures) under the same conditions (FIG. 4b). Moreover, the crystals that did form on the coated surface grew much more slowly than those on the uncoated surface.

[6] = Water contact angle on amorphous IMC film; details: 22° C., 70% R.H.
Procedure: Contact Angle Measurements. The measurements were performed at 22° C. and 70% R.H. using a method similar to that of Zografi and Tam. […] The water droplet thus formed was about 3 mm in diameter. A side view of the droplet was recorded with a digital camera and the contact angle was measured from the image (Image J1.34 S). Each amorphous film was measured three times at different sites. Three samples were measured for each coating condition.
The water contact angle characterizes the wetting ability of the surface. The measurement was performed with amorphous IMC films on microscope cover glasses. […] The contact angle increased and decreased accordingly with additional layers of PDDA and PSS.

[7] = Flowability measurements and tablet properties of IMC powder
Procedure: Flowability measurements. […] To determine tapped density and compressibility, approximately 1.5 g of powder was poured into a 10-ml cylinder. The initial volume (V0) yielded the initial bulk density D0 (“fluff or poured bulk density”). The powder was then tapped for 5 minutes to obtain the final bulk volume (Vf) and the final bulk density Df (“equilibrium, tapped or consolidated bulk density”). The percent (%) compressibility (Carr's Index) was calculated from (Df−D0)/Df×100, which is another measure of powder flowability (% compressibility higher than 40% is thought to indicate a non-flowing, cohesive powder; % compressibility lower than 28% is thought to indicate a fluid to free-flowing powder).
Uncoated amorphous IMC powder was cohesive and flowed with difficulty, while the coated powder flowed more easily. For the uncoated powder, the angle of repose was 36°, signifying acceptable flowability.

| Compound | ζ-potential [1] | solubility [2] [µg/mL] | IDR [3] [mg/cm^2/min] | solid state of powder after 2 days (PXRD) ([4]; 2 days at 40° C., powder sieved through 75 μm) | DSC crystallization exotherm after 2 days ([4]; 2 days of storage at 40° C.) | surface crystallization in vacuum compared with desiccated ambient air ([5]; 0.4 mTorr and 22° C.) | surface covered by crystals after 20 days ([5]; 15 μm films on cover glasses, 20 days at 40° C.) | crystallization of film between two cover glasses ([5]; below Tg (42° C.), no free surface) | appearance of crystals at free surface ([5]; one cover glass removed, 40° C.) | coverage of free surface with crystals on storage ([5]; uncoated film, 40° C.) | water contact angle [6] [°] | time until tablet began crystallizing to α IMC in the dissolution medium [3] | IDR ([3]; listed as Uncoated) [mg/cm^2/min] | IDR after 2 d ([3]; after 2 days of storage at 40° C.) [mg/cm^2/min] | % Compressibility ([7]; Carr's Index, (Df−D0)/Df×100) [%] | angle of repose ([7]; powder) [°] | angle of repose ([7]; powder sieved through 75 μm screen) | Tapped Density ([7]; powder tapped for 5 minutes) [g/mL] | Tablet Bulk Density ([7]; tablets made with a Carver press) [g/mL] | Tablet Porosity ([7]; true density of 1.31 g/cm^3 used) [%] |
| --- | --- | --- | --- | --- | --- | --- | --- | --- | --- | --- | --- | --- | --- | --- | --- | --- | --- | --- | --- | --- |
| COc1ccc2c(c1)c(CC(=O)O)c(C)n2C(=O)c1ccc(Cl)cc1 [γ IMC, 1-(p-chlorobenzoyl)-5-methoxy-2-methylindole-3-acetic acid] | negatively charged | 1500 (≈ 4.19 mM) | 0.07 |  |  |  |  |  |  |  |  |  |  |  |  |  |  |  |  |  |
| COc1ccc2c(c1)c(CC(=O)O)c(C)n2C(=O)c1ccc(Cl)cc1 [amorphous IMC, 1-(p-chlorobenzoyl)-5-methoxy-2-methylindole-3-acetic acid] | −41 mV |  |  | crystallized into γ IMC | disappears | same rate of crystal growth | completely covered with crystals | does not crystallize for months | crystals appear in days | After two or three weeks, the surface was fully covered with crystals | 44 | approximately 20 minutes | 0.56 | 0.10 | 42 ± 1 | 36 | 36.1 ± 2.3 | 0.52 ± 0.03 | 1.07 ± 0.03 | 18 ± 2 |
